Columns and labels:
Format in all cases: cell-based, human
HeLa = assay: WST-1 cytotoxicity, HeLa
Procedure: (§1) Cancer and normal cell lines were purchased from ATCC and stored in liquid nitrogen. HT-29 (colon adenoma cancer), HeLa (cervix adenoma cancer cell), MDA-MB-231 (breast adenoma cancer cell) and HEK-293 (embryonic kidney epithelial cell), PNT-1A (normal prostate cells) cell lines were incubated in DMEM: F-12 and RPMI-1640, including 10% Foetal Bovine Serum (FBS), 100 μg/mL streptomycin/100 IU/mL penicillin, at 37 °C in an incubator containing 5% CO2, 95% air in a humid atmosphere.
(§2) The cytotoxic effects of the substances were evaluated with WST-1 kits (Roche, Germany) in accordance with the manufacturer’s protocols. The cells were plated on 96-well plates (10^4 cells in each well). After incubation for 24 h, the media were discarded and the substances and Cisplatin as the control drug, at doses of 0, 2.5, 5, 10, 25, 50, 100, and 200 μM, were incubated for 24, 48, and 72 h. WST-1 reactive of 10 µl was added to all wells. Following 4 h incubation, the measurements were taken on a plate reader (Spectramax M5) at wavelengths of 450 and 630 nm. Graphs were then created and the IC50 value of each substance was calculated.

PNT-1A = assay: WST-1 cytotoxicity, PNT-1A normal cells; details: PNT-1A normal cell
Procedure: as §1, §2

HeLa cells [1] = assay: Annexin V-FITC/PI flow cytometry apoptosis; details: from 10 μM, 24 h
Procedure: The apoptotic effect of the substances was explored with the commercial FITC Annexin V Apoptosis Detection Kit I (BD Biosciences, New Jersey, USA) according to the manufacturer’s protocol. The cells were plated on 6-well plates (5 × 10^5 cells/well), and following 24 h incubation, sulfonamide compounds at concentrations of 10 and 25 μM were administered, followed by incubation for 24 h. The cells were raised by trypsin handling, and transferred into new tubes within 1X binding buffer, as 1 × 10^6 in each tube, which was incubated for 15 min at room temperature. 5 μL of fluorochrome-conjugated Annexin V and 5 μL of Propidium Iodide dyes were then added. 100 μl 1X binding buffer was added to the cells, and they were then centrifuged at 1200 rpm, for 5 min. Finally, the cells were analysed in flow cytometry (BD Via, New Jersey, USA).

HeLa cells [2] = assay: Intracellular pH (BCFL-AM fluorometric kit); details: 0–25 μM
Procedure: Intracellular pH was measured according to the protocol of the fluorometric Intracellular pH Assay Kit (Sigma, Schnelldorf, Germany, MAK-150). Fluorescent BCFL-AM indicator that was able to pass through the cell membrane was used to measure intracellular pH fluctuations in the fluorometric intracellular pH kit. BCFL-AM was utilised to measure the reductions in intracellular pH of the cells that had been treated by various conditions. The cells were plated on black plates, as 6 × 10^4 in each well of the plate, and incubated for 24 h. The medium was replaced with BCFL-AM Reagent which had been prepared in 100 µl of HBS solution (Hank’s buffer with 20 mM HEPES, 5 mM Probenecid), then the cells were incubated at 37 °C in an atmosphere of 5% CO2 for 30 min (protected from light). Sulfonamide compound at doses of 0–25 μM was added to the HBS solution. In the next 5 min, the measurement was performed at wavelengths of 490 nm (excitation) 535 nm (emission) in spectrofluorimetry (Spectramax, M5). Extracellular pHe and lactate levels were measured with commercial kit by the blood gas device (ABL90 FLEX PLUS, Radiometer, Copenhagen, Denmark) which is routinely used in the clinical biochemistry laboratory of hospital. After the application of the substance in this method, the media were analysed directly by the device.

HeLa cells [3] = assay: Intracellular ROS detection; details: 0–25 μM
Procedure: Intracellular free radicals were measured using the Cellular Reactive Oxygen Species Detection Assay commercial kit (Red Fluorescence, Abcam, Cambridge-UK, 186027). In this kit, a fluorescence probe that is permeable to the cell is used. When the probe reacts with ROS, it produces red fluorescence. The process was applied following kit protocol. The cells were plated on black plates, as 3 × 10^4 in 100 µl, and incubated for 24 h. Sulfonamide compounds in PBS were administered at doses of 0–25 μM and incubated at 37 °C in an atmosphere of 5% CO2 for 1 h (protected from light). After the compounds were poured out, the wells were filled with 100 µl of ROS Deep Red Working Solution and incubated at 37 °C in an atmosphere of 5% CO2 for 1 h. A fluorometry device (Spectramax, M5) Ex/Em = 650/675 nm (cut off = 665 nm) was used to take the measurements.

HeLa cells [4] = assay: Western blot of cleaved caspases 3, 8, 9 and cleaved PARP; details: most notably 10 μM, 24 h
Procedure: The cells were seeded on 6 cm^2 cell culture dishes, and treated with sulfonamide compounds, at doses of 10 and 25 μM, for 24 h. The cells were then washed with cold PBS, which was followed by lysis with RIPA lysis buffer (10 mM Tris-HC1 pH =8, 1 mM EDTA, 1 mM EGTA, 140 mM NaCl, 1% TritonX-100, 0.1 SDS, 0.1% Sodium deoxycholate), 1X phosphates and protease inhibitor (Santa Cruz Biotechnology, Dallas, USA). The acquired supernatants from the lysates which were centrifuged at 12000 g, +4 °C, for 10 min, were transferred to new tubes. Protein concentration was detected using the protein assay kit BCA (Thermo Fisher Scientific, Waltham, MA). After a 30-min period of protein (50 µg) standing in 10% SDS-PAGE gel at 50 V and at 80 V for 3 h, those were blotted to PVDF membrane at 70 V for 5 min (Bio-Rad Turbo Transfer System, Segrate (MI), Italy). After embedding in 1X TBST (12,1 gr Tris, pH 7.5, 70 gr NaCl, 0.1% Tween-20) containing 5% dry milk or 5% BSA, the primer monoclonal antibodies Cleaved Caspase 3,8,9, Cleaved PARP (Millipore) CA IX and Beta-actin, were applied to the membrane and left overnight, which was followed by washing with 1X TBS-T and an incubation period with secondary antibodies of HRP rabbit (Cell signaling, Danvers, MA, USA) or mouse (1/10.000) for 60 min. […]

## NS(=O)(=O)c1ccc(CCN=Cc2cc(Cl)ccc2O)cc1 [Compound A-1]
HeLa; 24 h
  IC50: 28.9 µM
HeLa; 48 h
  IC50: 17.4 µM
HeLa; 72 h
  IC50: 13.7 µM
PNT-1A; 24 h
  IC50: 389 µM
PNT-1A; 48 h
  IC50: 110 µM
PNT-1A; 72 h
  IC50: 203 µM
HeLa cells [1]
  early apoptosis: 48.7%
HeLa cells [2]
  intracellular pH (pHi) change: reduction of pHi
HeLa cells [3]
  intracellular ROS: increase the intracellular ROS in HeLa cells in a dose-dependent manner
HeLa cells [4]
  cleaved caspase 3, 8, 9 and c-PARP protein levels: significant increase
